Experiments:
normal shaved mice = conditions: after about 20 days; cited from earlier work
[1] = test system: men with mild to moderate androgenic alopecia; conditions: 1 milligram per day, 24 months, 100 men; cited from earlier work
[2] = target: T1, 5α-Reductase Type 1 enzyme (Homo sapiens, UniProt P18405); test: Inhibition of 5α-Reductase Type 1; type: biochemical
T1 sequence (P18405 1-259): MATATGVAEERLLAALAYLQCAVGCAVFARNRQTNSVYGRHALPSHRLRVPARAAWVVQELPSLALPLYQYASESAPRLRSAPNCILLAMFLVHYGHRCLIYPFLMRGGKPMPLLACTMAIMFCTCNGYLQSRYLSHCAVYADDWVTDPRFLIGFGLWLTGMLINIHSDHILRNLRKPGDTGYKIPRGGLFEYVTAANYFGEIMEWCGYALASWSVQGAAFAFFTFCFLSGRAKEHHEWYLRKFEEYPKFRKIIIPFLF
Text: (§1) The different free fatty acids of medium and long saturated chains and long unsaturated chains are shown, together with esterified fatty acids, oxidized fatty acids, fatty alcohols, phytosterols, and other components. The magnitude of the activity is designated by “none,” “moderate” or “very active” (FIG. 3). The various constituents shown in the table of FIG. 2 are also shown and listed as free fatty acid molecules with: a) medium, saturated chains, b) long, saturated chains, and c) long unsaturated chains. There are esterified fatty acids, oxidized fatty acids, and fatty alcohols. These tables support other evidence that the five active free fatty acids for prostate and hair health are lauric, myristic, oleic, linoleic and linolenic free fatty acids.
Reference is now made to FIGS. 7B and 7C showing the use of a supercritical CO2 extracted LSESr and Permixon®.

[3] = target: T2, 5α-Reductase Type 2 enzyme (Homo sapiens, UniProt P31213); test: Inhibition of 5α-Reductase Type 2 (Inhibition Experiments 1 and 2); type: biochemical
T2 sequence (P31213 1-254): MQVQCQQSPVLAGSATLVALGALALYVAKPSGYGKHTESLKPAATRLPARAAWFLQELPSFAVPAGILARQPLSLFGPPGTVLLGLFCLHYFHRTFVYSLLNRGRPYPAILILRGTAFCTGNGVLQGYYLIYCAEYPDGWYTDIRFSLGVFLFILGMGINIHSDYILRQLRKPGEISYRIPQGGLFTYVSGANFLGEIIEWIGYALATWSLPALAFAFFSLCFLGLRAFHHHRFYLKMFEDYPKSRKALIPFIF
Text: as §1
Data are shown in the graphs and bar charts of FIGS. 5 and 6 where data are reported as the effectiveness to inhibit enzyme activity (IC50). […]
Inhibition Experiment 2 shown in FIG. 6 determined the possible impact of Permixon® product matrix (PEG) on an in vitro assay and the pegylated and conventional ultra-high purity supercritical CO2 extract having the PEG matrix (U4602-PEG) was compared to the commercially available Permixon® and the conventional unpegylated product (U4602) for their ability to inhibit the 5α-Reductase 2 enzyme. […]

CCCCC/C=C\C/C=C\CCCCCCCC(=O)O [linoleic acid]
hair growth (normal shaved mice): about 100%

CC(C)(C)NC(=O)[C@H]1CC[C@H]2[C@@H]3CC[C@H]4NC(=O)C=C[C@]4(C)[C@H]3CC[C@]12C [finasteride]
men who noted an improvement [1]: 68%

CCCCCCCC/C=C\CCCCCCCC(=O)O [oleic acid]
effect on 5α-Reductase-1 (in words) [2]: especially effective
effect on 5α-Reductase-2 (in words) [3]: not as much
